We go through eight compounds from PubChem BioAssay (NCI).

What all share (assay): DTP human tumour cell line panel, 48 h
In test [1] the test system is A549 NSCLC.
The test system of test [2] is BT-549 breast.
Test [3] has as its system HL-60(TB) leukemia.
Test [4] has as its system HOP-92 NSCLC.
Test [5] has as its system LOX IMVI melanoma.
Test [6] concerns MALME-3M melanoma.
In test [7] the test system is SF-539 CNS.
Test [8] concerns SK-MEL-2 melanoma.
Test [9] has as its system SNB-19 CNS.
Test [10] relates to TK-10 renal.

Each structure is given as a SMILES string.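 Grown in 96-well plates, cells were treated for 48 hours with each compound at five concentrations. Insufficient inhibition: endpoint recorded as highest concentration tested. GI50 marks 50% less growth. TGI denotes the concentration required for complete inhibition of growth.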

For the compound `CC(=O)OC1CC[C@@]2(C)C(CC[C@]3(C)C2CC=C2[C@@H]4CC(C)(C)CCC4(C)CCC23C)[C@@]1(C)C(=O)O` (stereo not given in full), the TGI in test [1] came out at 33.9 µM; in test [2], 50.1 µM; in test [3], 83.5 µM; in test [4], 49.9 µM; in test [5] it was 50.1 µM; in test [6], 47.1 µM. Further, the TGI in test [7] came to 50.7 µM; in test [8], 38.6 µM; in [9], 47.3 µM; in test [10], 51.8 µM.
As for `CC(C)[NH-].CC(C)[NH-].O.O.[Cl][Pt+2][Cl]`, the GI50 in test [1] was 33.9 µM; in test [2] it was 56 µM; in [3], 15.3 µM; in test [4], 22.3 µM; in test [5], 18.3 µM; in test [6] it was 19.4 µM. Besides, the GI50 is 47.3 µM in [7], 19 µM in test [8], 70.9 µM in test [9] and 190 µM in [10]. Besides, the TGI in test [1] is 213 µM; in test [2] it was 266 µM; in test [3], 83.7 µM; in [4] it was 70.8 µM; in [5], 51.4 µM; in test [6], 57.8 µM. For the same compound, the TGI was determined as 160 µM in [7], 91.6 µM in test [8], 314 µM in test [9] and 467 µM in test [10].
Turning to `Clc1ccc(C(c2ccc(Cl)cc2)N2CCNCC2)cc1`, the TGI in test [1] stood at 8.4 µM; in [2], 38.3 µM; in test [3] it was 4.57 µM; in [4], 10.6 µM; in test [5] it was 4.53 µM; in [6] it was 3.12 µM. In addition, the TGI was found to be 3.02 µM in test [7], 3.63 µM in test [8], 21.3 µM in [9] and 3.74 µM in [10].
In the case of `N#C/C(=C\Nc1ccccn1)C(=O)c1ccco1`, the TGI in test [1], in test [2], in test [3], in test [4], in test [5] and in [6] was over 100 µM each time. Further, the TGI in [7], in test [8], in test [9] and in [10] was over 100 µM each time.
As for `COc1cc2c(cc1OC)-c1ccc3cc4c(cc3c1N(CCN(C)C)C2)OCO4`, the GI50 in test [1] is 0.694 µM; in test [2] it was 1.15 µM; in [3] it was 0.25 µM; in test [4] it was 0.859 µM; in [5] it was 0.271 µM; in [6] it was 1.15 µM. The GI50 in test [7] was 0.352 µM; in test [8], 3.36 µM; in test [9] it was 0.4 µM; in test [10], 2.03 µM. Moreover, the TGI in test [1] was determined as 2.13 µM; in test [2] it was 11.9 µM; in [3] it was 0.681 µM; in [4], 7.94 µM; in test [5], 1.32 µM; in [6] it was 9.45 µM. The TGI in test [7] came to 2.53 µM; in test [8] it was 16.7 µM; in test [9], 11.9 µM; in test [10], 7.39 µM.
In the case of `C[C@@H](NC(=O)[C@@H](CC(=O)N1CCC(N2CCCCC2)CC1)N1C(=O)[C@@H](N2C(=O)OC[C@@H]2c2ccccc2)[C@H]1/C=C/c1cccc(Cl)c1)c1ccccc1`, the GI50 in [1] was 4.34 µM; in test [2], 5.14 µM; in test [3], 2.21 µM; in test [4] it was 3.64 µM; in [5] it was 1.46 µM; in test [6] it was 1.68 µM. Moreover, the GI50 in test [7] was 1.76 µM; in [8], 2.25 µM; in test [9], 2.77 µM; in [10], 1.92 µM. The concentration for total growth inhibition (TGI) was found to be 15.6 µM in test [1]; 18 µM in test [2]; 4.87 µM in test [3]; 16.8 µM in [4]; 3.06 µM in test [5]; 3.3 µM in test [6]. The TGI in test [7] stood at 3.38 µM; in test [8] it was 5.36 µM; in [9], 7.57 µM; in [10], 4.76 µM.
Regarding `COc1ccc2c3c(c4ccccc4cc13)C(=O)N(CCN(C)CCN)C2=O`, the GI50 was 0.0113 µM in test [1]; 0.329 µM in test [2]; 0.0272 µM in test [3]; 0.114 µM in test [4]; 0.0446 µM in test [5]; 0.0799 µM in test [6]. Further, the GI50 in test [7] was 0.186 µM; in test [8], 0.887 µM; in test [9], 0.0692 µM; in test [10], 0.13 µM. Also, the TGI in test [1] was determined as 0.243 µM; in test [2] it was 1.84 µM; in test [3], 0.361 µM; in [4], 0.896 µM; in test [5], 0.381 µM; in [6], 1.27 µM. The TGI was found to be 1.35 µM in test [7], 18.5 µM in [8], 1.27 µM in test [9] and 1.31 µM in test [10].
For the compound `COc1cc(-c2csc(NC(=O)Nc3cc(C(F)(F)F)cc(C(F)(F)F)c3)n2)cc(OC)c1OC`, the GI50 in test [1] was 2.62 µM; in [2] it was 2.38 µM; in [3] it was 2.43 µM; in test [4], 1.35 µM; in test [5] it was 3.04 µM; in [6], 2.15 µM. Further, the GI50 is 2.28 µM in [7], 1.66 µM in [8], 3.56 µM in [9] and 2.45 µM in [10]. Moreover, the TGI in [1] is 12.4 µM; in test [2] it was 7.84 µM; in [3], 6.89 µM; in [4], 4.36 µM; in test [5], 12.3 µM; in test [6], 7.32 µM. Also, the TGI in test [7] came to 6.75 µM; in [8] it was 5.85 µM; in test [9], 15.7 µM; in [10], 10.3 µM.
